Experimental data reported in patent publication US9839642B2, “Beta-tetrazolyl-propionic acids as metallo-beta-lactamase inhibitors” (priority 2014, dated 2017).
Where two headings read alike, the source gives them in different places.

Assays:
[1] = biological target: IMP-1 (Serratia marcescens, UniProt P52699); assay: Enzyme activity: determination of IC50, fluorescence assay with CCF2-FA substrate; assay type: biochemical; details: enzyme 2 pM, CCF2-FA 1.25 μM, 2 hours at 25° C.; read-out: IMP1 IC50
Sequence of IMP-1 (P52699 19-246, looked up, species assumed): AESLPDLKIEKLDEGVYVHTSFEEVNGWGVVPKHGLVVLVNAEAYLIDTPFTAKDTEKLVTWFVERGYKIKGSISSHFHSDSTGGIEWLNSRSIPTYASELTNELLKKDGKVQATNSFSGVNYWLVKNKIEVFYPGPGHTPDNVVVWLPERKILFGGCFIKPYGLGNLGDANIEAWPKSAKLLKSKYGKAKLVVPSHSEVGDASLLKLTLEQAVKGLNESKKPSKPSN
Outline: (§1)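 Enzyme (1 pM NDM-1, 2 pM IMP-1, 30 pM VIM-1) incubated with inhibitor (20 to 0.00063 μM) and 1.25 μM CCF2-FA in 100 mM KH2PO4 pH 7, 0.005% Tween-20, 10 μM ZnSO4, 2 h at 25 °C. Fluorescence read at 460 nm (ex 405 nm); IC50 by 4-parameter fit.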

[2] = biological target: VIM-1 (Pseudomonas aeruginosa, UniProt A0A0F7KYQ8); assay: as above; assay type: biochemical; details: enzyme 30 pM, CCF2-FA 1.25 μM, 2 hours at 25° C.; read-out: VIM1 IC50
Outline: as §1

[3] = biological target: NDM-1 (Klebsiella pneumoniae, UniProt C7C422); assay: as above; assay type: biochemical; details: CCF2-FA 1.25 μM, 2 hours at 25° C.
Sequence of NDM-1 (C7C422 29-270, looked up, species assumed): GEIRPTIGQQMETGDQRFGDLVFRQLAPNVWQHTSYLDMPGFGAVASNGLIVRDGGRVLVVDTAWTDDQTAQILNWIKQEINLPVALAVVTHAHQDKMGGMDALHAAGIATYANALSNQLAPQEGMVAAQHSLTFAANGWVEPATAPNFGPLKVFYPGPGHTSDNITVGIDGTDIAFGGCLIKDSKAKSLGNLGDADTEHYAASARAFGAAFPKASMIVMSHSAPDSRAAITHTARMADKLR
Outline: as §1

[4] = system: Escherichia coli expressing NDM-1 (CLB30016); assay: Antibiotic potentiation activity: synergistic concentration (MITC95) with imipenem, growth by OD600; assay type: cell-based; details: 95% inhibition of bacterial growth, strain CLB30016
Outline: (§2)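 Strains grown overnight at 35° C, resuspended in saline, diluted 1:100 into 1.1×CAMHB; imipenem at 1 μg/ml or 4 μg/ml with test compound 200 μM to 0.195 μM. Incubated 22 hours to 24 hours at 35° C, OD600 read; MITC95 is lowest compound concentration inhibiting 95% of growth.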

[5] = system: Serratia marcescens expressing IMP-1 (CL5741); assay: as above; assay type: cell-based; details: 95% inhibition of bacterial growth, strain CL5741
Outline: as §2

[6] = system: Klebsiella pneumoniae expressing VIM-1 (IHMA599644); assay: as above; assay type: cell-based; details: 95% inhibition of bacterial growth, strain IHMA599644
Outline: as §2

[7] = enzyme 1 pM, read-out: NDM1 IC50

Structure (SMILES)	IC50 [1] [nM]	IC50 [2] [nM]	IC50 [3, 7] [nM]	NDM1 EC30016 MITC95 [4] [µM]	IMP1 SM5741 MITC95 [5] [µM]	VIM1 KP599644 MITC95 [6] [µM]	IC50 ([3]; NDM1 IC50, enzyme 1 pM) [nM]
CCC[C@H](C(=O)O)[C@H](Cc1ccc(-c2ccc3ccnc(C#N)c3c2)nc1)c1nnn[nH]1 [Example 162, (2S)-2-[(1S)-2-[6-(1-cyanoisoquinolin-7-yl)pyridin-3-yl]-1-(1H-tetrazol-5-yl)ethyl]pentanoic acid]	560	3.7	22	75	12.5	125	
CCC[C@H](C(=O)O)[C@H](Cc1ccc(-c2cnc(N(C)C)nc2)nc1)c1nnn[nH]1 [Example 163, (2S)-2-[(1S)-2-{6-[2-(dimethylamino)pyrimidin-5-yl]pyridin-3-yl}-1-(1H-tetrazol-5-yl)ethyl]pentanoic acid]	600	3.8	25	38	16	125	
CCC[C@H](C(=O)O)[C@H](Cc1ccc(C2=CCNC2)nc1)c1nnn[nH]1 [Example 164, (2S)-2-[(1S)-2-[6-(2,5-dihydro-1H-pyrrol-3-yl)pyridin-3-yl]-1-(1H-tetrazol-5-yl)ethyl]pentanoic acid]	13000	3.9	530	9.4	50	18.8	
CCC[C@H](C(=O)O)[C@H](Cc1ccc(C2=CCNCC2)cn1)c1nnn[nH]1 [Example 165, (2S)-2-[(1S)-2-(1′,2′,3′,6′-tetrahydro-3,4′-bipyridin-6-yl)-1-(1H-tetrazol-5-yl)ethyl]pentanoic acid]	> 20000	68		3.1	150	25	1500
CCC[C@H](C(=O)O)[C@H](Cc1ccc(-c2ccc(C3(O)CNC3)cc2)cn1)c1nnn[nH]1 [Example 166, (2S)-2-[(1S)-2-{5-[4-(3-hydroxyazetidin-3-yl)phenyl]pyridin-2-yl}-1-(1H-tetrazol-5-yl)ethyl]pentanoic acid]	9300	170	500	9.4	100	38	
CCC[C@H](C(=O)O)[C@H](Cc1ccc(-c2ccc(N)nc2)cn1)c1nnn[nH]1 [Example 167, (2S)-2-[(1S)-2-(6′-amino-3,3′-bipyridin-6-yl)-1-(1H-tetrazol-5-yl)ethyl]pentanoic acid]	5700	140	200	9.4	>200	100	
CCC[C@H](C(=O)O)[C@H](Cc1ccc(-c2ccc3[nH]ncc3c2)cn1)c1nnn[nH]1 [Example 168, (2S)-2-[(1S)-2-[5-(1H-indazol-5-yl)pyridin-2-yl]-1-(1H-tetrazol-5-yl)ethyl]pentanoic acid]	3000	53	100	25	200	>200	
CCC[C@H](C(=O)O)[C@H](Cc1ccc(-c2ccc3c(c2)OCC(=O)N3)cn1)c1nnn[nH]1 [Example 169, (2S)-2-[(1S)-2-[5-(3-oxo-3,4-dihydro-2H-1,4-benzoxazin-7-yl)pyridin-2-yl]-1-(1H-tetrazol-5-yl)ethyl]pentanoic acid]	1600	38	88	18.8	100	200	
CC(C)C[C@H](C(=O)O)[C@H](Cc1ccc(C2=CCNCC2)cn1)c1nn[nH]n1 [Example 170, (2S)-4-methyl-2-[(1S)-2-(1′,2′,3′,6′-tetrahydro-3,4′-bipyridin-6-yl)-1-(2H-tetrazol-5-yl)ethyl]pentanoic acid]	3600	22		1.6	50	12.5	250
CC(C)C[C@H](C(=O)O)[C@H](Cc1ccc(-c2ccc(CO)cc2)cn1)c1nn[nH]n1 [Example 171, (2S)-2-[(1S)-2-{5-[4-(hydroxymethyl)phenyl]pyridin-2-yl}-1-(2H-tetrazol-5-yl)ethyl]-4-methylpentanoic acid]	740	56	47	75	62	200	
CC(C)C[C@H](C(=O)O)[C@H](Cc1ccc(-c2ccc(N)nc2)cn1)c1nn[nH]n1 [Example 172, (2S)-2-[(1S)-2-(6′-amino-3,3′-bipyridin-6-yl)-1-(2H-tetrazol-5-yl)ethyl]-4-methylpentanoic acid]	800	49	52	12.5	38	50	
